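Method: 48-hour compound exposure of cells in 96-well plates, five concentrations, linear interpolation of endpoints. Here, GI50 denotes the concentration required for 50% inhibition of growth.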 Activity calls are given as the source filed them. No stated cut-off is given here; in the data, active = GI50 up to about 1.1 µM and inactive = higher.
Tests used:
Assay in all cases: DTP human tumour cell line panel, 48 h
786-0 = system: 786-0
A498 = system: A498
A549 = system: A549
ACHN = system: ACHN
BT-549 = system: BT-549
CAKI-1 = system: CAKI-1
CCRF-CEM = system: CCRF-CEM
COLO 205 = system: COLO 205
DU-145 = system: DU-145
EKVX = system: EKVX
HCC 2998 = system: HCC 2998
HCT-116 = system: HCT-116
HCT-15 = system: HCT-15
HL-60 = system: HL-60
HOP-62 = system: HOP-62
HOP-92 = system: HOP-92
HT-29 = system: HT-29
Hs-578T = system: Hs-578T
K562 = system: K562
KM12 = system: KM12
LOX IMVI = system: LOX IMVI
M14 = system: M14
MCF7 = system: MCF7
MDA-MB-231 = system: MDA-MB-231
MDA-MB-435 = system: MDA-MB-435
MDA-N = system: MDA-N
MOLT-4 = system: MOLT-4
Malme-3M = system: Malme-3M
NCI-H226 = system: NCI-H226
NCI-H23 = system: NCI-H23
NCI-H460 = system: NCI-H460
NCI-H522 = system: NCI-H522
NCI/ADR-RES = system: NCI/ADR-RES
OVCAR-3 = system: OVCAR-3
OVCAR-4 = system: OVCAR-4
OVCAR-5 = system: OVCAR-5
OVCAR-8 = system: OVCAR-8
RPMI-8226 = system: RPMI-8226
RXF 393 = system: RXF 393
SF-268 = system: SF-268
SF-295 = system: SF-295
SF-539 = system: SF-539
SK-MEL-28 = system: SK-MEL-28
SK-MEL-2 = system: SK-MEL-2
SK-MEL-5 = system: SK-MEL-5
SK-OV-3 = system: SK-OV-3
SN12C = system: SN12C
SNB-19 = system: SNB-19
SW-620 = system: SW-620
T47D = system: T47D
TK-10 = system: TK-10
U-251 = system: U-251
UACC-257 = system: UACC-257
UACC-62 = system: UACC-62
UO-31 = system: UO-31
IGROV-1 = system: IGROV-1
SNB-75 = system: SNB-75
SR = system: SR

COc1cc(/C=C2\C(=O)N(c3ccccc3Cl)C(c3ccccc3)S2(=O)=O)cc(OC)c1OC (stereo unspecified)
GI50 (786-0): 31.2 µM (inactive) | GI50 (A498): > 100 µM (inactive) | GI50 (A549): 36.8 µM (inactive) | GI50 (ACHN): > 100 µM (inactive) | GI50 (BT-549): 36 µM (inactive) | GI50 (CAKI-1): 59.7 µM (inactive) | GI50 (CCRF-CEM): 16 µM (inactive) | GI50 (COLO 205): 36.4 µM (inactive) | GI50 (DU-145): 59 µM (inactive) | GI50 (EKVX): 41.4 µM (inactive) | GI50 (HCC 2998): > 100 µM (inactive) | GI50 (HCT-116): 22.9 µM (inactive) | GI50 (HCT-15): 44.7 µM | GI50 (HL-60): 28.6 µM (inactive) | GI50 (HOP-62): 53 µM (inactive) | GI50 (HOP-92): 41.3 µM (inactive) | GI50 (HT-29): 16.3 µM (inactive) | GI50 (Hs-578T): 46.5 µM (inactive) | GI50 (K562): 22 µM (inactive) | GI50 (KM12): 27.2 µM (inactive) | GI50 (LOX IMVI): 21.7 µM (inactive) | GI50 (M14): 31.9 µM (inactive) | GI50 (MCF7): 25.6 µM (inactive) | GI50 (MDA-MB-231): 49.9 µM (inactive) | GI50 (MDA-MB-435): 33.3 µM (inactive) | GI50 (MDA-N): 15.2 µM (inactive) | GI50 (MOLT-4): 15.3 µM (inactive) | GI50 (Malme-3M): 28.7 µM (inactive) | GI50 (NCI-H226): 42 µM (inactive) | GI50 (NCI-H23): 39.1 µM (inactive) | GI50 (NCI-H460): 52.2 µM (inactive) | GI50 (NCI-H522): 20.9 µM (inactive) | GI50 (NCI/ADR-RES): 29.6 µM (inactive) | GI50 (OVCAR-3): 47.4 µM (inactive) | GI50 (OVCAR-4): 57.3 µM (inactive) | GI50 (OVCAR-5): 20.9 µM (inactive) | GI50 (OVCAR-8): 45.8 µM (inactive) | GI50 (RPMI-8226): 17.2 µM (inactive) | GI50 (RXF 393): 19.5 µM (inactive) | GI50 (SF-268): 46.7 µM (inactive) | GI50 (SF-295): 34 µM (inactive) | GI50 (SF-539): 20 µM (inactive) | GI50 (SK-MEL-28): 39 µM (inactive) | GI50 (SK-MEL-2): 44.1 µM (inactive) | GI50 (SK-MEL-5): 18.6 µM (inactive) | GI50 (SK-OV-3): 30.7 µM (inactive) | GI50 (SN12C): 20.8 µM (inactive) | GI50 (SNB-19): 34.7 µM (inactive) | GI50 (SW-620): 37.3 µM (inactive) | GI50 (T47D): 32.8 µM (inactive) | GI50 (TK-10): 62.7 µM (inactive) | GI50 (U-251): 24.2 µM (inactive) | GI50 (UACC-257): 51.1 µM (inactive) | GI50 (UACC-62): 31.9 µM (inactive) | GI50 (UO-31): 30.3 µM (inactive)

N#Cc1c(-c2ccccc2)nc(-c2ccccc2)sc1=S
GI50 (786-0): > 100 µM (inactive) | GI50 (A498): > 100 µM (inactive) | GI50 (A549): > 100 µM (inactive) | GI50 (ACHN): > 100 µM (inactive) | GI50 (BT-549): > 100 µM (inactive) | GI50 (CAKI-1): > 100 µM (inactive) | GI50 (CCRF-CEM): 49.2 µM (inactive) | GI50 (COLO 205): > 100 µM (inactive) | GI50 (DU-145): > 100 µM (inactive) | GI50 (EKVX): > 100 µM (inactive) | GI50 (HCC 2998): > 100 µM (inactive) | GI50 (HCT-116): > 100 µM (inactive) | GI50 (HCT-15): > 100 µM | GI50 (HL-60): > 100 µM (inactive) | GI50 (HOP-62): > 100 µM (inactive) | GI50 (HOP-92): > 100 µM (inactive) | GI50 (HT-29): > 100 µM (inactive) | GI50 (Hs-578T): > 100 µM (inactive) | GI50 (IGROV-1): > 100 µM (inactive) | GI50 (K562): > 100 µM (inactive) | GI50 (KM12): > 100 µM (inactive) | GI50 (LOX IMVI): > 100 µM (inactive) | GI50 (M14): > 100 µM (inactive) | GI50 (MCF7): > 100 µM (inactive) | GI50 (MDA-MB-231): > 100 µM (inactive) | GI50 (MDA-MB-435): > 100 µM (inactive) | GI50 (MDA-N): > 100 µM (inactive) | GI50 (Malme-3M): > 100 µM (inactive) | GI50 (NCI-H226): > 100 µM (inactive) | GI50 (NCI-H23): > 100 µM (inactive) | GI50 (NCI-H460): > 100 µM (inactive) | GI50 (NCI/ADR-RES): > 100 µM (inactive) | GI50 (OVCAR-3): > 100 µM (inactive) | GI50 (OVCAR-4): > 100 µM (inactive) | GI50 (OVCAR-5): > 100 µM (inactive) | GI50 (OVCAR-8): > 100 µM (inactive) | GI50 (RPMI-8226): > 100 µM (inactive) | GI50 (RXF 393): > 100 µM (inactive) | GI50 (SF-268): > 100 µM (inactive) | GI50 (SF-295): > 100 µM (inactive) | GI50 (SF-539): > 100 µM (inactive) | GI50 (SK-MEL-28): > 100 µM (inactive) | GI50 (SK-MEL-2): > 100 µM (inactive) | GI50 (SK-MEL-5): > 100 µM (inactive) | GI50 (SK-OV-3): > 100 µM (inactive) | GI50 (SN12C): > 100 µM (inactive) | GI50 (SNB-19): > 100 µM (inactive) | GI50 (SNB-75): > 100 µM (inactive) | GI50 (SW-620): > 100 µM (inactive) | GI50 (T47D): > 100 µM (inactive) | GI50 (TK-10): > 100 µM (inactive) | GI50 (U-251): > 100 µM (inactive) | GI50 (UACC-257): > 100 µM (inactive) | GI50 (UACC-62): > 100 µM (inactive) | GI50 (UO-31): > 100 µM (inactive)

CN1C(=O)C2CCCC(=O)N2c2cccnc21 (stereo unspecified)
GI50 (786-0): > 100 µM (inactive) | GI50 (A549): > 100 µM (inactive) | GI50 (ACHN): > 100 µM (inactive) | GI50 (BT-549): > 100 µM (inactive) | GI50 (CAKI-1): > 100 µM (inactive) | GI50 (CCRF-CEM): > 100 µM (inactive) | GI50 (COLO 205): > 100 µM (inactive) | GI50 (DU-145): > 100 µM (inactive) | GI50 (EKVX): > 100 µM (inactive) | GI50 (HCC 2998): > 100 µM (inactive) | GI50 (HCT-116): > 100 µM (inactive) | GI50 (HCT-15): > 100 µM | GI50 (HL-60): > 100 µM (inactive) | GI50 (HOP-62): > 100 µM (inactive) | GI50 (HT-29): > 100 µM (inactive) | GI50 (Hs-578T): > 100 µM (inactive) | GI50 (IGROV-1): > 100 µM (inactive) | GI50 (K562): > 100 µM (inactive) | GI50 (KM12): > 100 µM (inactive) | GI50 (LOX IMVI): > 100 µM (inactive) | GI50 (MCF7): > 100 µM (inactive) | GI50 (MDA-MB-231): > 100 µM (inactive) | GI50 (MDA-MB-435): > 100 µM (inactive) | GI50 (MDA-N): > 100 µM (inactive) | GI50 (MOLT-4): > 100 µM (inactive) | GI50 (Malme-3M): > 100 µM (inactive) | GI50 (NCI-H226): > 100 µM (inactive) | GI50 (NCI-H23): > 100 µM (inactive) | GI50 (NCI-H460): > 100 µM (inactive) | GI50 (NCI-H522): > 100 µM (inactive) | GI50 (NCI/ADR-RES): > 100 µM (inactive) | GI50 (OVCAR-3): > 100 µM (inactive) | GI50 (OVCAR-4): > 100 µM (inactive) | GI50 (OVCAR-8): > 100 µM (inactive) | GI50 (RPMI-8226): > 100 µM (inactive) | GI50 (SF-268): > 100 µM (inactive) | GI50 (SF-295): > 100 µM (inactive) | GI50 (SF-539): > 100 µM (inactive) | GI50 (SK-MEL-28): > 100 µM (inactive) | GI50 (SK-MEL-2): 32.4 µM (inactive) | GI50 (SK-MEL-5): > 100 µM (inactive) | GI50 (SN12C): > 100 µM (inactive) | GI50 (SNB-19): > 100 µM (inactive) | GI50 (SR): > 100 µM (inactive) | GI50 (SW-620): > 100 µM (inactive) | GI50 (T47D): > 100 µM (inactive) | GI50 (TK-10): > 100 µM (inactive) | GI50 (U-251): > 100 µM (inactive) | GI50 (UACC-257): > 100 µM (inactive) | GI50 (UACC-62): 68.9 µM (inactive) | GI50 (UO-31): 74.1 µM (inactive)

— ChEMBL document CHEMBL1201862, “PubChem BioAssay data set” (2004)
